Measured values as given in article PMC11589570, “Critical assessment of LC3/GABARAP ligands used for degrader development and ligandability of LC3/GABARAP binding pockets” (Nature Communications, 2024).

What was measured:
[1] = molecular target: T1, NanoLuc-fusion full-length LC3A (Homo sapiens, UniProt Q9H492); assay: NanoBRET cellular target engagement assay in HEK293T cells; type: cell-based
T1 construct: a fluorescent donor (in this case full length LC3A and LC3B); expressed in transfected cells; host or cells: HEK293T (ATCC; CRL-11268)
Procedure: (§1) NanoBRET cellular target engagement assay: Constructs contained the cDNA of full-length LC3A and LC3B cloned in frame with an N-terminal NanoLuc-fusion. Plasmids were transfected into HEK293T (ATCC; CRL-11268) cells using FuGENE HD (Promega, E2312) and proteins were allowed to express for 20 h. 10O5 and 8F20-based tracers were titrated to the protein as depicted in Supplementary Fig. 4d. For competition experiments, 1 µM of the tracers was pipetted into white 384-well plates (Greiner 781 207) using an Echo 550 acoustic dispenser (Labcyte) containing LC3A/LC3B expressing transfected cells at a density of 2.5 × 10^5 cells/mL in Opti-MEM without phenol red (Life Technologies). The system was allowed to equilibrate for 2 h at 37 °C and 5% CO2 prior to BRET measurements. To measure BRET, NanoBRET NanoGlo Substrate + Extracellular NanoLuc Inhibitor (Promega, N2540) was added as per the manufacturer’s protocol, and filtered luminescence was measured on a PHERAstar plate reader (BMG Labtech) equipped with a luminescence filter pair (450 nm BP filter (donor) and 610 nm LP filter (acceptor)). Competitive displacement data were then plotted using GraphPad Prism 9.3 software using a normalized 3-parameter curve fit. A detailed step-by-step protocol for this assay is described in Schwalm..

[2] = molecular target: T2, NanoLuc-fusion full-length LC3B (Homo sapiens, UniProt Q9GZQ8); assay: as above; type: cell-based
T2 construct: a fluorescent donor (in this case full length LC3A and LC3B); expressed in transfected cells; host or cells: HEK293T (ATCC; CRL-11268)
Procedure: as §1

[3] = molecular target: LC3B (Homo sapiens, UniProt Q9GZQ8); assay: FP assay with 10O5- and 8F20-based dye-linked tracers 16 and 17; settings: LC3B
[4] = molecular target: LC3A (Homo sapiens, UniProt Q9H492); assay: as above; settings: LC3A
[5] = 0.05% Tween20 supplemented buffer

NanoBRET signal / tracer displacement ([1]; LC3A, 1 µM tracer, compound 4 for tracer 16, compound 3 for tracer 17): no BRET signal
maximum BRET increase in tracer titration ([1]; NanoLuciferase-tagged LC3A): ~ 1.3 fold
NanoBRET signal / tracer displacement ([2]; LC3B, 1 µM tracer, compound 4 for tracer 16, compound 3 for tracer 17): no BRET signal
maximum BRET increase in tracer titration ([2]; NanoLuciferase-tagged LC3B): ~ 1.3 fold
tracer affinity (protein titration for tracer KD) ([3]; buffer lacking detergent): nanomolar
tracer affinity (protein titration for tracer KD) ([4]; buffer lacking detergent): nanomolar
SMILES: Cc1ccc(C(=O)N(CCCNC(=O)CCOCCOCCOCCNC(=O)CCc2ccc3n2[B-](F)(F)[N+]2=C(c4ccc[nH]4)C=CC2=C3)[C@@H](c2nc3cc(Cl)ccc3c(=O)n2Cc2ccccc2)C(C)C)cc1 [compound 17, (R)-N-(1-(3-benzyl-7-chloro-4-oxo-3,4-dihydroquinazolin-2-yl)−2-methylpropyl)-N-(1-(5,5-difluoro-7-(1H-pyrrol-2-yl)−5H−5l4,6l4-dipyrrolo[1,2-c:2’,1’-f][1,3,2]diazaborinin-3-yl)−3,16-dioxo-7,10,13-trioxa-4,17-diazaicosan-20-yl)−4-methylbenzamide]
tracer binding in repeated protein titration [3, 5]: completely abolishing the putative binding
tracer binding in repeated protein titration [4, 5]: completely abolishing the putative binding
